{"source": "paper PMC4979471", "about": "(Cell Death Discovery, 2015)", "test_in_all_cases": "Kinase selectivity, P33-radiolabeled assay", "type_in_all_cases": "biochemical", "details_in_all_cases": "10 μM ATP", "key": {"FGFR1": {"molecular_target": "T1, FGFR1 (Homo sapiens, UniProt P11362)", "T1 construct": "purchased Reaction Biology Corp", "T1 sequence (P11362 22-822)": "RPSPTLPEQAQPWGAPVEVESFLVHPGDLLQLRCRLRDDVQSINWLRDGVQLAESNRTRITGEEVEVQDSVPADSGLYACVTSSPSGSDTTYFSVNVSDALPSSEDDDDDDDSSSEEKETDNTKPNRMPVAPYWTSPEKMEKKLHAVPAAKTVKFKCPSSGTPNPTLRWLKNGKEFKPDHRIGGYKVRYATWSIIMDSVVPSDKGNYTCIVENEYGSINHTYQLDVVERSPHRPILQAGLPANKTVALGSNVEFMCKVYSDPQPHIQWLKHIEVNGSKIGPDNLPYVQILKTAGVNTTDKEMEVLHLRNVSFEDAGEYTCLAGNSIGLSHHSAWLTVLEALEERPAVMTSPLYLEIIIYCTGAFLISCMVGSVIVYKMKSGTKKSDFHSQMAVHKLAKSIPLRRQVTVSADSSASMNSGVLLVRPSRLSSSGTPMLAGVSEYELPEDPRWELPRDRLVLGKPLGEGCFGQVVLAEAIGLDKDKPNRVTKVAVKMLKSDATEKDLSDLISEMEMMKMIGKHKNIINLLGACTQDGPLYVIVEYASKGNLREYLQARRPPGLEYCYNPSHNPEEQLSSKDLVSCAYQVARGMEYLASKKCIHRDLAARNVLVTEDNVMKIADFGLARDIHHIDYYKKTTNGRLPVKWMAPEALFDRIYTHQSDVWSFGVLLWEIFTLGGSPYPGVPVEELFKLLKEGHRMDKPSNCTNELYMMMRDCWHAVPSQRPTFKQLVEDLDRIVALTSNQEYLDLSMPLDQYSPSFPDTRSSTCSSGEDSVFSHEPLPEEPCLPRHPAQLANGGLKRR", "procedure,_shortened": "(§1)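 Values show % enzyme activity normalised to DMSO vehicle. They come from one 10 μM compound concentration run twice, at an ATP level of 10 μM.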"}, "NLK": {"molecular_target": "T2, NLK (Homo sapiens, UniProt Q9UBE8)", "T2 construct": "purchased Reaction Biology Corp", "T2 sequence (Q9UBE8 1-527)": "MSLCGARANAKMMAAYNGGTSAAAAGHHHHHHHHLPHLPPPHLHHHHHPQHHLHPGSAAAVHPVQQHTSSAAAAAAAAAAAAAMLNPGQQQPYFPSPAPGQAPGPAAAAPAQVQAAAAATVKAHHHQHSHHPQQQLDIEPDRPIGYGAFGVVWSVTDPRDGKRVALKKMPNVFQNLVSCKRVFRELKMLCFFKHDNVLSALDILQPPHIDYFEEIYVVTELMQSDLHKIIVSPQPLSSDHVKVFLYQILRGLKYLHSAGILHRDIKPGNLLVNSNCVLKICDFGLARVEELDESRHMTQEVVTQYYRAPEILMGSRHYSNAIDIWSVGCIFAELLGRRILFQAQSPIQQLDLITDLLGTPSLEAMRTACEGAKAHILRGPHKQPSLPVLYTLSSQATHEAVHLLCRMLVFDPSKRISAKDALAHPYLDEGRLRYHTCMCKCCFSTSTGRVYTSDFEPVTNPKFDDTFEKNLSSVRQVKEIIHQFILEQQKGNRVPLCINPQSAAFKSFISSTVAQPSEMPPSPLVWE", "procedure,_shortened": "as §1"}, "TEC": {"molecular_target": "T3, TEC (Homo sapiens, UniProt P42680)", "T3 construct": "purchased Reaction Biology Corp", "T3 sequence (P42680 1-631)": "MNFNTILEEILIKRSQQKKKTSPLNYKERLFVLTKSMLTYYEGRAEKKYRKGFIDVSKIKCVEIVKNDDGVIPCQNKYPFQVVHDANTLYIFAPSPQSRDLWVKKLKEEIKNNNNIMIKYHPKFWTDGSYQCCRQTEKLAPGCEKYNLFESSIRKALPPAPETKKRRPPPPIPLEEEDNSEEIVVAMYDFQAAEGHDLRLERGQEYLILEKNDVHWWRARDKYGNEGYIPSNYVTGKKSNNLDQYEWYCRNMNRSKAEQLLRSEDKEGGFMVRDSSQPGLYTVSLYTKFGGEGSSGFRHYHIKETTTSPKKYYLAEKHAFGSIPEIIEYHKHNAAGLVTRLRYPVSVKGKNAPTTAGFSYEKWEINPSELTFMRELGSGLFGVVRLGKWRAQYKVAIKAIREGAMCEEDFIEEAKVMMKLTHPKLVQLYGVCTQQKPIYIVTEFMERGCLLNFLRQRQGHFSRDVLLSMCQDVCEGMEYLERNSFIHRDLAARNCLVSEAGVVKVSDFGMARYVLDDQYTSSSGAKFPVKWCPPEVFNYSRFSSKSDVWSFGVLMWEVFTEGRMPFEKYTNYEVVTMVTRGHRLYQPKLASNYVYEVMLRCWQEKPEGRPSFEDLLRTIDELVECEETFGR", "procedure,_shortened": "as §1"}, "PRKX": {"molecular_target": "T4, PRKX (Homo sapiens, UniProt P51817)", "T4 construct": "purchased Reaction Biology Corp", "T4 sequence (P51817 1-358)": "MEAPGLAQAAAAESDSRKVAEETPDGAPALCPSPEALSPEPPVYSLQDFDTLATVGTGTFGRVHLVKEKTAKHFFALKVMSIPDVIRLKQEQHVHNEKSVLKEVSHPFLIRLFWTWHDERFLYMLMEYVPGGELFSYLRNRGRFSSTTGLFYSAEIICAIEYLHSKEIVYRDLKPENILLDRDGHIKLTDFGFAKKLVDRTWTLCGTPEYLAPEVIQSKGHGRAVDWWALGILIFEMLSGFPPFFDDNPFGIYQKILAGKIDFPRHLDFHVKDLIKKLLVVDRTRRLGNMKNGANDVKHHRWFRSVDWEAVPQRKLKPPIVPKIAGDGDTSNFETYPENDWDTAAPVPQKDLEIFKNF", "procedure,_shortened": "as §1"}, "ERK7/MAPK15": {"molecular_target": "T5, ERK7/MAPK15 (Homo sapiens, UniProt Q8TD08)", "T5 construct": "purchased Reaction Biology Corp", "T5 sequence (Q8TD08 1-544)": "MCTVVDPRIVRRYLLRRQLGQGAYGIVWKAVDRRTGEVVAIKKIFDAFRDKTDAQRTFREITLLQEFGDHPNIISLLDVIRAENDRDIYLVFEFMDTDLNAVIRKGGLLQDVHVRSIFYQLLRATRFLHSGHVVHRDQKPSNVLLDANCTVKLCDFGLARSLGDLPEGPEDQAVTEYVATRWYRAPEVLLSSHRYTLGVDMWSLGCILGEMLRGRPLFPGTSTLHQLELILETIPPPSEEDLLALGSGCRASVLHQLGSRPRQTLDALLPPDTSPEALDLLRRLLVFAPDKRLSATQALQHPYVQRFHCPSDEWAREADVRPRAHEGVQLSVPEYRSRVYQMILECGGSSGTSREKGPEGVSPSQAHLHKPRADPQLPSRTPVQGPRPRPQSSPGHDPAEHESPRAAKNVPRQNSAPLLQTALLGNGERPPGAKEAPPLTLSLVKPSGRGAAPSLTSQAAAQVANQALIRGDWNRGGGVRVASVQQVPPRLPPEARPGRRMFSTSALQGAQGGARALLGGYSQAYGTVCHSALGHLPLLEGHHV", "procedure,_shortened": "as §1"}, "PAK4": {"molecular_target": "T6, PAK4 (Homo sapiens, UniProt O96013)", "T6 construct": "purchased Reaction Biology Corp", "T6 sequence (O96013 whole entry)": "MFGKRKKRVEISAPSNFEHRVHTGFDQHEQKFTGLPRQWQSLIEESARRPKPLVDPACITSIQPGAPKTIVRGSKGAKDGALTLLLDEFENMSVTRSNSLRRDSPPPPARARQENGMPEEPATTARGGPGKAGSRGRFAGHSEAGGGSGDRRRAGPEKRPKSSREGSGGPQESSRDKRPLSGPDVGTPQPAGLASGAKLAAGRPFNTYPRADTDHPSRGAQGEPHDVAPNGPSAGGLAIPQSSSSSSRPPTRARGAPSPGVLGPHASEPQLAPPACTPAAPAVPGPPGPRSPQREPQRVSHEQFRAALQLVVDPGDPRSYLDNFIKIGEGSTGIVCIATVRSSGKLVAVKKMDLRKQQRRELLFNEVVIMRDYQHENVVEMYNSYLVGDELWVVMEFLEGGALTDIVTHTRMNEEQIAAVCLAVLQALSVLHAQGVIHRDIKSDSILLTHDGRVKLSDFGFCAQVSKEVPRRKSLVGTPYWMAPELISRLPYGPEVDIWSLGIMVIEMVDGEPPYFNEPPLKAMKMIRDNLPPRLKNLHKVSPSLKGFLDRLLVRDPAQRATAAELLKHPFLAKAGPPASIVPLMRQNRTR", "procedure,_shortened": "as §1"}, "ABL2/ARG": {"molecular_target": "T7, ABL2/ARG (Homo sapiens, UniProt P42684)", "T7 construct": "purchased Reaction Biology Corp", "T7 sequence (P42684 whole entry)": "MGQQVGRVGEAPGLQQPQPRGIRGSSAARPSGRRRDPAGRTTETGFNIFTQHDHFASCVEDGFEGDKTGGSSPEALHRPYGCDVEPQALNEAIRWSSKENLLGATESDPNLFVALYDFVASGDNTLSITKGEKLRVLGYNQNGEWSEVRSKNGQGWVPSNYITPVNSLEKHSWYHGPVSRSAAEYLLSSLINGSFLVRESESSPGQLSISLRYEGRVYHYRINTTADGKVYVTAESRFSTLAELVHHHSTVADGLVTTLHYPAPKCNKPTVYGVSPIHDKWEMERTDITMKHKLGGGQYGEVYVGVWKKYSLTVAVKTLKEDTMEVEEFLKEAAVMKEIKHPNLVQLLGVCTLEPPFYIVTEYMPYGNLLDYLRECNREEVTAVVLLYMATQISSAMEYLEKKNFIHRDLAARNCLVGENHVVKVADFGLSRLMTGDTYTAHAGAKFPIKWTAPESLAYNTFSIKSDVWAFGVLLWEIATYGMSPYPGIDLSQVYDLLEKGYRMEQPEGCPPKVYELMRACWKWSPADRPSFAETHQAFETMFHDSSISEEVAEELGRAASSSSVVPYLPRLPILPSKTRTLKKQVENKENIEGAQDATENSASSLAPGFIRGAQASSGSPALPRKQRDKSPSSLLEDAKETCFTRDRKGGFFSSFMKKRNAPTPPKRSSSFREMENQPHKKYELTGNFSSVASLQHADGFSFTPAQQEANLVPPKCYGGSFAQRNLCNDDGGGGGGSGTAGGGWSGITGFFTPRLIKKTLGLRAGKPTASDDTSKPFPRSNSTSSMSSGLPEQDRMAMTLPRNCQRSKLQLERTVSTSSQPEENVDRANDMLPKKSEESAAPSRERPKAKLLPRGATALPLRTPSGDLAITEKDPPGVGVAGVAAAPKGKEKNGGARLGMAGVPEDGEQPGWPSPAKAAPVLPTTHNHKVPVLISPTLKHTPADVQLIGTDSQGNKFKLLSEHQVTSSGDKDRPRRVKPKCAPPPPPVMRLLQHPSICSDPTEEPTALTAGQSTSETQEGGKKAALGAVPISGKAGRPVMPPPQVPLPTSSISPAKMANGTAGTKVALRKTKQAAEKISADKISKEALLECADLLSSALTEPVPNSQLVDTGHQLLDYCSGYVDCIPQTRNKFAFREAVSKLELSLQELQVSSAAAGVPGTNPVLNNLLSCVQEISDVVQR", "procedure,_shortened": "as §1"}, "[1]": {"details": "read-out: % Enzyme Activity (relative to DMSO controls) AVG"}, "[2]": {"details": "read-out: % Enzyme Activity (relative to DMSO controls) Data 1"}, "[3]": {"details": "read-out: % Enzyme Activity (relative to DMSO controls) Data 2"}}, "note": "Where two headings read alike, the source gives them in different places."}
{"smiles": "CC(C)(C)C(=O)N1N=CC[C@H]1c1ccccc1", "note": "[GSK′963]", "values": [{"measurement": "remaining activity at 10 µM", "setting": "FGFR1; [1]", "value": 95, "unit": "%"}, {"measurement": "remaining activity at 10 µM", "setting": "FGFR1; [2]", "value": 95.2, "unit": "%"}, {"measurement": "remaining activity at 10 µM", "setting": "FGFR1; [3]", "value": 94.8, "unit": "%"}, {"measurement": "remaining activity at 10 µM", "setting": "NLK; [1]", "value": 112, "unit": "%"}, {"measurement": "remaining activity at 10 µM", "setting": "NLK; [2]", "value": 111, "unit": "%"}, {"measurement": "remaining activity at 10 µM", "setting": "NLK; [3]", "value": 112, "unit": "%"}, {"measurement": "remaining activity at 10 µM", "setting": "TEC; [1]", "value": 104, "unit": "%"}, {"measurement": "remaining activity at 10 µM", "setting": "TEC; [2]", "value": 98.7, "unit": "%"}, {"measurement": "remaining activity at 10 µM", "setting": "TEC; [3]", "value": 109, "unit": "%"}, {"measurement": "remaining activity at 10 µM", "setting": "PRKX; [1]", "value": 107, "unit": "%"}, {"measurement": "remaining activity at 10 µM", "setting": "PRKX; [2]", "value": 106, "unit": "%"}, {"measurement": "remaining activity at 10 µM", "setting": "PRKX; [3]", "value": 107, "unit": "%"}, {"measurement": "remaining activity at 10 µM", "setting": "ERK7/MAPK15; [1]", "value": 112, "unit": "%"}, {"measurement": "remaining activity at 10 µM", "setting": "ERK7/MAPK15; [2]", "value": 113, "unit": "%"}, {"measurement": "remaining activity at 10 µM", "setting": "ERK7/MAPK15; [3]", "value": 111, "unit": "%"}, {"measurement": "remaining activity at 10 µM", "setting": "PAK4; [1]", "value": 93, "unit": "%"}, {"measurement": "remaining activity at 10 µM", "setting": "PAK4; [2]", "value": 95.4, "unit": "%"}, {"measurement": "remaining activity at 10 µM", "setting": "PAK4; [3]", "value": 90.5, "unit": "%"}, {"measurement": "remaining activity at 10 µM", "setting": "ABL2/ARG; [1]", "value": 83, "unit": "%"}, {"measurement": "remaining activity at 10 µM", "setting": "ABL2/ARG; [2]", "value": 84.7, "unit": "%"}, {"measurement": "remaining activity at 10 µM", "setting": "ABL2/ARG; [3]", "value": 81.4, "unit": "%"}]}
